Entries after “also recorded” stand apart in the source; their conditions may differ.
Assay: Test 1: blood NMN concentration after oral or sublingual administration of NMN (plasma, LC-MS/MS)
Format: in vivo, human
Method: Tablets were used for oral administration. The content of NMN was 500 mg.
Powder was used for sublingual administration. The content of NMN was 250 mg.
One adult with no abnormal health conditions participated in the test. The test was conducted over two separate days.
Then, 250 mg of NMN (powder) was placed under the tongue, so that the powder was dissolved with saliva, and the test subject was maintained in that state. After 1 minute, the test subject spit out all NMN from the mouth, and blood was collected from the fingertip 5, 10, 15, and 30 minutes after the NMN was placed under the tongue.
NMN concentration was determined by LC-MS/MS. Details of the measurements are described below.
• Liquid A: 5 mM Ammonium formate aqueous solution • Liquid B: Acetonitrile

[1] = sublingual administration, in some test subjects

## NC(=O)c1ccc[n+]([C@@H]2O[C@H](COP(=O)([O-])O)[C@@H](O)[C@H]2O)c1 [NMN, nicotinamide mononucleotide]
Oral administration, one tablet 500 mg NMN with water, one adult, 5-60 minutes, plasma
  blood NMN concentration compared with that observed before NMN ingestion (0 minute): virtually unchanged; also recorded: does not increase; also recorded: almost unchanged
[1]
  maximum blood concentration: ≥ 5 µg/mL
  time to reach the maximum blood concentration after administration: about 5 minutes
